Measurements: patent US20090022684A1, “Methods for hematopoietic stimulation” (priority 2006, published 2009)
Like-named read-outs stand apart in the source and are kept apart here. Positions of bridges follow the written chain, without caps; N, C: chain ends. Residues, ends and D or L forms follow the SMILES beside them.

Experiment: Phase I clinical trial: plasma pharmacokinetics of the peptide
Format: in vivo, human
Conditions: for Dose Proportionality Day 1 AUC(0-tlast)/Dose / Dose Proportionality Day 1 Cmax/Dose / Dose Proportionality Day 7 AUC(0-τ)/Dose / Dose Proportionality Day 7 Cmax/Dose / Tmax / Cmax / half-life / AUC(0-t) / AUC / AUC(0-inf) / Vd/F / CL/F: plasma; for Tmax / Cmax / half-life / AUC(0-t) / AUC / AUC(0-inf) / Vd/F / CL/F: human, sc; for AUC(0-t): read-out: AUC(0-tlast); for AUC: read-out: AUC(0-τ); for Vd/F: read-out: Vz/F
Description: A Phase I, single-center, randomized double blind, placebo-controlled, multiple-escalating-dose study in healthy older volunteers was carried out for the peptide [Leu^27]cyclo(Glu^22-Lys^2 1)-hPTH-(1-31)-NH2 (SEQ ID NO: 4). Subjects were healthy males and females (non-reproductive potential), aged 40 to 65 years. […] […] For each dosage level, 2 subjects (I male and I female) received placebo and 6 subjects (3 males and 3 females) received the peptide daily.
Pharmacokinetics. Plasma concentrations of the peptide were analyzed using the WinNonlin 4.0 Noncompartmental module (Pharsight Inc., Mountainview, Calif.) or equivalent. The following pharmacokinetic parameters were computed from the peptide plasma concentration-time data (See FIGS. 4 and 5): • AUC(0-tlast): The area under the plasma concentration versus time curve, from time 0 to the last measurable concentration, as calculated by the linear trapezoidal method (Day 1). • AUC(0-τ): The area under the plasma concentration versus time curve, from time 0 to the last measurable concentration, as calculated by the linear trapezoidal method (Day 7). • AUC(0-∞) or AUCinf: The area under the plasma concentration versus time curve from time 0 to infinity. AUC(0-∞) is calculated as the sum of the AUC(0-tlast) plus the ratio of the last measurable plasma concentration to the elimination rate constant (Clast/kel), where Clast is the predicted concentration at the time of the last measurable concentration, as determined by linear regression, and kel is the apparent first-order elimination rate constant (Day 1). • AUC/AUCinf: The ratio of AUC(0-tlast) to AUC(0-∞). • Cmax: Maximum measured plasma concentration over the time span specified. • Tmax: Time of the maximum measured plasma concentration. If the maximum value occurs at more than one time point, Tmax is defined as the first time point with this value. • kel: Apparent first-order terminal elimination rate constant calculated from a semi-log plot of the plasma concentration versus time curve. This parameter was calculated by linear least squares regression analysis using the maximum number of points in the terminal log-linear phase (e.g. three or more non-zero plasma concentrations). • t1/2: The apparent first-order terminal elimination half-life was calculated as 0.693/kel. • Vz/F: Apparent volume of distribution of a drug following subcutaneous administration, calculated as Dose/( AUC(0-∞)·kel), (Day 1). • CL/F: Apparent total body clearance of a drug following […], calculated as Dose/AUC(0-∞), (Day 1).
Accumulation Index: Calculated as AUC(0-τ) Day 7/AUC(0-tlast) Day 1.

[1] = both sexes, 10 ug, Day 1, 10 μg s.c., geometric mean (CV %)
[2] = both sexes, 10 ug, Day 7, 10 μg s.c. daily, geometric mean (CV %)
[3] = both sexes, 20 ug, Day 1, 20 μg s.c., geometric mean (CV %)
[4] = both sexes, 20 ug, Day 7, 20 μg s.c. daily, geometric mean (CV %)
[5] = both sexes, 40 ug, Day 1, 40 μg s.c., geometric mean (CV %)
[6] = both sexes, 40 ug, Day 7, 40 μg s.c. daily, geometric mean (CV %)
[7] = both sexes, 60 ug, Day 1, 60 μg s.c., arithmetic mean (CV %)
[8] = both sexes, 60 ug, Day 1, 60 μg s.c., geometric mean (CV %)
[9] = both sexes, 60 ug, Day 7, 60 μg s.c. daily, geometric mean (CV %)
[10] = both sexes, 80 ug, Day 1, 80 μg s.c., arithmetic mean (CV %)
[11] = both sexes, 80 ug, Day 1, 80 μg s.c., geometric mean (CV %)
[12] = both sexes, 80 ug, Day 7, 80 μg s.c. daily, geometric mean (CV %)
[13] = both sexes, 20 ug, Day 1, 20 μg s.c., n = 1
[14] = both sexes, 40 ug, Day 1, 40 μg s.c., n = 1

CC[C@H](C)[C@H](NC(=O)[C@H](CCC(=O)O)NC(=O)[C@H](CO)NC(=O)[C@@H](NC(=O)[C@@H](N)CO)C(C)C)C(=O)N[C@@H](CCC(N)=O)C(=O)N[C@@H](CC(C)C)C(=O)N[C@@H](CCSC)C(=O)N[C@@H](Cc1c[nH]cn1)C(=O)N[C@@H](CC(N)=O)C(=O)N[C@@H](CC(C)C)C(=O)NCC(=O)N[C@@H](CCCCN)C(=O)N[C@@H](Cc1c[nH]cn1)C(=O)N[C@@H](CC(C)C)C(=O)N[C@@H](CC(N)=O)C(=O)N[C@@H](CO)C(=O)N[C@@H](CCSC)C(=O)N[C@@H](CCC(=O)O)C(=O)N[C@@H](CCCN=C(N)N)C(=O)N[C@H](C(=O)N[C@H]1CCC(=O)NCCCC[C@@H](C(=O)N[C@@H](CC(C)C)C(=O)N[C@@H](CC(C)C)C(=O)N[C@@H](CCC(N)=O)C(=O)N[C@@H](CC(=O)O)C(=O)N[C@H](C(N)=O)C(C)C)NC(=O)[C@H](CCCN=C(N)N)NC(=O)[C@H](CC(C)C)NC(=O)[C@H](Cc2c[nH]c3ccccc23)NC1=O)C(C)C [[Leu^27]cyclo(Glu^22-Lys^26)-hPTH-(1-31)-NH2] (H-SVSEIQLMHNLGKHLNSMERVEWLRKLLQDV-NH2; lactam 22-26)
accumulation (20 μg, 60 μg and 80 μg dose levels): no observed accumulation
Dose Proportionality Day 1 AUC(0-tlast)/Dose (Dose Level 10 μg): 1.08
Dose Proportionality Day 1 Cmax/Dose (Dose Level 10 μg): 2.35
Dose Proportionality Day 7 AUC(0-τ)/Dose (Dose Level 10 μg): 2.06
Dose Proportionality Day 7 Cmax/Dose (Dose Level 10 μg): 3.13
Dose Proportionality Day 1 AUC(0-tlast)/Dose (Dose Level 20 μg): 1.10
Dose Proportionality Day 1 Cmax/Dose (Dose Level 20 μg): 1.66
Dose Proportionality Day 7 AUC(0-τ)/Dose (Dose Level 20 μg): 1.14
Dose Proportionality Day 7 Cmax/Dose (Dose Level 20 μg): 1.95
Dose Proportionality Day 1 AUC(0-tlast)/Dose (Dose Level 30 μg): 3.30
Dose Proportionality Day 1 Cmax/Dose (Dose Level 30 μg): 2.92
Dose Proportionality Day 7 AUC(0-τ)/Dose (Dose Level 30 μg): 3.58
Dose Proportionality Day 7 Cmax/Dose (Dose Level 30 μg): 3.18
Dose Proportionality Day 1 AUC(0-tlast)/Dose (Dose Level 40 μg): 1.89
Dose Proportionality Day 1 Cmax/Dose (Dose Level 40 μg): 2.68
Dose Proportionality Day 7 AUC(0-τ)/Dose (Dose Level 40 μg): 2.68
Dose Proportionality Day 7 Cmax/Dose (Dose Level 40 μg): 3.19
Dose Proportionality Day 1 AUC(0-tlast)/Dose (Dose Level 60 μg): 1.61
Dose Proportionality Day 1 Cmax/Dose (Dose Level 60 μg): 1.85
Dose Proportionality Day 7 AUC(0-τ)/Dose (Dose Level 60 μg): 1.96
Dose Proportionality Day 7 Cmax/Dose (Dose Level 60 μg): 2.21
Tmax (both sexes, 10 ug, Day 1, 10 μg s.c., arithmetic mean (CV %)): 15 min
Cmax [1]: 0.0235 ng/mL
Tmax (both sexes, 10 ug, Day 7, 10 μg s.c. daily, arithmetic mean (CV %)): 15 min
Cmax [2]: 0.0313 ng/mL
Tmax (both sexes, 20 ug, Day 1, 20 μg s.c., arithmetic mean (CV %)): 20 min
Cmax [3]: 0.0332 ng/mL
Tmax (both sexes, 20 ug, Day 7, 20 μg s.c. daily, arithmetic mean (CV %)): 25 min
Cmax [4]: 0.0391 ng/mL
Tmax (both sexes, 40 ug, Day 1, 40 μg s.c., arithmetic mean (CV %)): 20.3 min
Cmax [5]: 0.107 ng/mL
Tmax (both sexes, 40 ug, Day 7, 40 μg s.c. daily, arithmetic mean (CV %)): 15 min
Cmax [6]: 0.128 ng/mL
Tmax [7]: 17.6 min
Cmax [8]: 0.111 ng/mL
Tmax (both sexes, 60 ug, Day 7, 60 μg s.c. daily, arithmetic mean (CV %)): 15 min
Cmax [9]: 0.133 ng/mL
Tmax [10]: 24 min
Cmax [11]: 0.234 ng/mL
Tmax (both sexes, 80 ug, Day 7, 80 μg s.c. daily, arithmetic mean (CV %)): 15.7 min
Cmax [12]: 0.254 ng/mL
half-life (both sexes, from 20 μg dose to 80 μg dose, s.c., read-out: mean t1/2 across dose groups): 32.8 to 46.7 min
AUC(0-t) [1]: 0.0108 ng·h/mL
AUC [2]: 0.0206 ng·h/mL
AUC(0-t) [3]: 0.022 ng·h/mL
AUC(0-inf) [13]: 0.092 ng·h/mL
Vd/F [13]: 171 L
half-life (both sexes, 20 ug, Day 1, 20 μg s.c., n = 1, read-out: t½ (converted)): 32.8 min
AUC [4]: 0.0228 ng·h/mL
AUC(0-t) [5]: 0.0755 ng·h/mL
AUC(0-inf) [14]: 0.134 ng·h/mL
Vd/F [14]: 247 L
half-life (both sexes, 40 ug, Day 1, 40 μg s.c., n = 1, read-out: t½ (converted)): 34.6 min
AUC [6]: 0.107 ng·h/mL
CL/F [7]: 7770 mL/min
Vd/F [7]: 477 L
AUC(0-inf) [8]: 0.139 ng·h/mL
AUC(0-t) [8]: 0.0965 ng·h/mL
half-life (both sexes, 60 ug, Day 1, 60 μg s.c., mean (CV %), read-out: t½ (converted)): 41.8 min
AUC [9]: 0.118 ng·h/mL
CL/F [10]: 5230 mL/min
Vd/F [10]: 361 L
AUC(0-inf) [11]: 0.257 ng·h/mL
AUC(0-t) [11]: 0.264 ng·h/mL
half-life (both sexes, 80 ug, Day 1, 80 μg s.c., mean (CV %), read-out: t½ (converted)): 46.7 min
AUC [12]: 0.286 ng·h/mL
CL/F (20 ug, Day 1, 20 μg s.c., n = 1): 3620 mL/min
CL/F (40 ug, Day 1, 40 μg s.c., n = 1): 4970 mL/min
dose proportionality of AUC(0-∞) (Day 1), AUC(0-τ) (Day 7), Cmax (Day 1) and Cmax (Day 7) (increasing dose from 10 μg to 80 μg): dose proportional
pharmacokinetic behavior, comparison AUC(0-τ) Day 7/AUC(0-∞) Day 1 (once-daily subcutaneous administration for 7 days of 60 μg and 80 μg doses): linear
